Measured values reported in patent publication US20260062420A1, “NOVEL DPP1 INHIBITORS AND USES THEREOF” (Insmed Incorporated, priority 2022, published 2026).
Read-outs that look alike come from different tables or passages of the source.

Legend:
[1] = target: Recombinant human DPP1 enzyme (Homo sapiens (Human), UniProt P53634); experiment: Human DPP1 Enzyme IC50 Assay; format: biochemical
Protocol: Recombinant human DPP1 enzyme (R&D Systems; Minneapolis, MN) was first proteolytically processed into its mature form using recombinant human cathepsin L (R&D Systems) in a buffer consisting of 20 mM citric acid pH 4.5, 150 mM NaCl, 1 mM EDTA and 10 mM DTT. Test articles were applied to activated human DPP1 enzyme in Assay Buffer (25 mM MES pH 6.0, 50 mM NaCl, 5 mM DTT) in a total reaction volume of 125 μL. 25 μL of compound in Assay Buffer plus 5% DMSO was first added to 50 μL of activated human DPP1 enzyme at a concentration of 1 ng/μL and allowed to pre-incubate for 10 minutes at 37° C. after which 50 μL of 1000 μM H-Gly-Arg-AMC substrate (Bachem; St. Torrance, CA) was added, giving final substrate concentration of 400 μM and a final DMSO concentration of 1%. Substrate cleavage was measured for 90 minutes at 37° C., with fluorescence at Excitation/Emission 350/450 nm measured every 5 minutes. DPP1 concentration was interpolated based on its activity relative to a standard curve of activated human recombinant DPP1 enzyme. IC50 values for each compound were calculated via the XLFit (IDBS Version 5.3.1.3) Add-On to Microsoft Excel using the four parameter fit equation y={A+[(B−A)]/[1+((C/x)^D)]}, which appears as equation number 205 (4 Parameter Logistic Model or Sigmoidal Dose-Response Model) in XLFit. Default constraints were used for each Parameter.

[2] = target: active mouse DPP1 enzyme (Mus musculus (Mouse), UniProt P97821); experiment: Mouse DPP1 Enzyme IC50 Assay; format: biochemical
Protocol: Test articles were applied to active mouse DPP1 enzyme (R&D Systems; Minneapolis, MN) in Assay Buffer (50 mM MES pH 5.5, 50 mM NaCl, 5 mM DTT) in a total reaction volume of 125 μL. 25 μL of compound in Assay Buffer plus 5% DMSO was first added to 50 μL of active mouse DPP1 enzyme at a concentration of 62.5 pg/μL and allowed to pre-incubate for 10 minutes at 37° C. after which 50 μL of 1000 μM H-Gly-Arg-AMC substrate (Bachem; St. Torrance, CA) was added, giving final substrate concentration of 400 μM and a final DMSO concentration of 1%. Substrate cleavage was measured for 90 minutes at 37° C., with fluorescence at Excitation/Emission 350/450 nm measured every 5 minutes. DPP1 concentration was interpolated based on its activity relative to a standard curve of recombinant active mouse DPP1 enzyme. IC50 values for each compound were calculated via the XLFit (IDBS Version 5.3.1.3) Add-On to Microsoft Excel using the four parameter fit equation y=(A+((B−A)/(1+((C/x)^D)))), which appears as equation number 205 (4 Parameter Logistic Model or Sigmoidal Dose-Response Model) in XLFit. Default constraints were used for each Parameter. IC50 was defined as the compound concentration at which 50% of enzyme activity was inhibited when compared to the no-compound control.

[3] = target: DPP1 in HL-60 cells (Homo sapiens (Human), UniProt P53634); experiment: DPP1 Cell IC50 Assay (HL-60 cells, H-Gly-Phe-AFC substrate); format: cell-based
Protocol: HL-60 cells (ATCC; Manassas, VA) were maintained in RPMI-1640 supplemented with 20% heat-inactivated FBS and 1× Antibiotic Antimycotic (Cytiva; Marlborough, MA). Media was changed every three to four days and cells were not allowed to exceed 1×10^6 cells per mL. Prior to assay, cells were collected by centrifugation at 500 rcf for 3 minutes, resuspended in PBS and counted. Cells were diluted in PBS to a concentration of 5×10^5 live cells per mL and transferred to black 96-well plates for assay, 60 μL per well. Test articles were diluted in PBS plus 0.5% DMSO, and 20 μL was added to each assay well. Compound was allowed to pre-incubate with cells with gentle shaking at 100 rpm for 60 minutes at 37° C. in a cell culture incubator maintained at 5% CO2, after which 20 μL of 500 μM H-Gly-Phe-AFC substrate (MP Biomedicals; Solon, OH) was added to each well. Plates were returned to the incubator with shaking at 100 rpm for 30 minutes, after which fluorescence was measured at Excitation/Emission 400/505 nm. % Inhibition was calculated from RFU values compared to control cell wells that received only PBS plus 0.5% DMSO. IC50 values for each compound were calculated via the XLFit (IDBS Version 5.3.1.3) Add-On to Microsoft Excel using the four parameter fit equation y=(A+((B−A)/(1+((C/x)^D)))), which appears as equation number 205 (4 Parameter Logistic Model or Sigmoidal Dose-Response Model) in XLFit.

[4] = human DPP1 enzyme, Table 16, read-out: IC50, nM, Human
[5] = mouse DPP1 enzyme, Table 16, read-out: IC50, nM, Mouse
[6] = H-Gly-Phe-AFC substrate, Table 15, read-out: Cell IC50

Chain of active mouse DPP1 enzyme (P97821 25-134): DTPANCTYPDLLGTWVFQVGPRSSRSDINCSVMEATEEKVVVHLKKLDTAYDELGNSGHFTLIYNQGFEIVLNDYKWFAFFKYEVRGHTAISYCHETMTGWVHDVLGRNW
Chain of active mouse DPP1 enzyme (P97821 231-393): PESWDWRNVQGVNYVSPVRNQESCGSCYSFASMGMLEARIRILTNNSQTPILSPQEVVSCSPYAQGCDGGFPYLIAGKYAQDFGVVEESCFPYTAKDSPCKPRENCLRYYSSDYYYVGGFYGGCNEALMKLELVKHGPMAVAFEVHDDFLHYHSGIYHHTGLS
Chain of active mouse DPP1 enzyme (P97821 394-462): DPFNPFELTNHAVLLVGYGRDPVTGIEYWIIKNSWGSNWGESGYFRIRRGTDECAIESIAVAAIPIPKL
Chain of DPP1 in HL-60 cells (P53634 25-134): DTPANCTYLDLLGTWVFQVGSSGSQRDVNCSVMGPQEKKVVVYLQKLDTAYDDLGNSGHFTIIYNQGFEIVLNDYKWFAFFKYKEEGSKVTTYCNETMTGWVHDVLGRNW
Chain of DPP1 in HL-60 cells (P53634 231-394): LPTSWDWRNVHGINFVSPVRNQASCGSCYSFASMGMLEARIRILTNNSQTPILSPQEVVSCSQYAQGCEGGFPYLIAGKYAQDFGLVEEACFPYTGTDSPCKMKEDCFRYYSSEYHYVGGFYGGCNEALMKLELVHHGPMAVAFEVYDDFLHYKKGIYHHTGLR
Chain of DPP1 in HL-60 cells (P53634 395-463): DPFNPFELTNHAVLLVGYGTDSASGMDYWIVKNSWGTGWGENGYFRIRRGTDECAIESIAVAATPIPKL
Chain of Recombinant human DPP1 enzyme (P53634 25-134): as the sequence (P53634 25-134) above
Chain of Recombinant human DPP1 enzyme (P53634 231-394): as the sequence (P53634 231-394) above
Chain of Recombinant human DPP1 enzyme (P53634 395-463): as the sequence (P53634 395-463) above

Row | Structure (SMILES) | IC50 [1, 4] | IC50 [2, 5] | IC50 ([3]; Table 16, read-out: Cell Assay) | also measured
1 | Cn1c(=O)oc2ccc(-c3ccc(C[C@@H](C#N)NC(=O)[C@@H]4COCCN4)cc3)cc21 | 537 nM | 306 nM | 330 nM | –
2 | Cn1c(=O)oc2ccc(-c3ccc(C[C@@H](C#N)NC(=O)[C@@H]4C[C@H]5C[C@H]5N4)cc3)cc21 [IWD-002, (1R,3S,5R)—N—((S)-1-cyano-2-(4-(3-methyl-2-oxo-2,3-dihydrobenzo[d]oxazol-5-yl)phenyl)ethyl)-2-azabicyclo[3.1.0]hexane-3-carboxamide] | – | – | – | IC50 [3, 6]: 3.7 nM
3 | N#Cc1ccc(-c2ccc(C[C@@H](C#N)NC(=O)[C@H]3C[C@@H]4COC[C@@H]4N3)cc2)cc1 | > 5000 nM | > 5000 nM | – | –
4 | Cn1c(=O)oc2ccc(-c3ccc(C[C@@H](C#N)NC(=O)C4(C)CNCCO4)cc3)cc21 (some centres unmarked) | 2180 nM | 3160 nM | – | –
5 | Cn1c(=O)oc2ccc(-c3ccc(C[C@@H](C#N)NC(=O)[C@H]4C[C@@H]5COC[C@@H]5N4)cc3)cc21 | > 5000 nM | > 5000 nM | – | –
6 | C=C1Oc2ccc(-c3ccc(C[C@@H](C#N)NC(=O)CC4(N)CCS(=O)(=O)C4)cc3)cc2N1C (some centres unmarked) | > 5000 nM | > 5000 nM | – | –
7 | CC[C@@H](/C=C/C(=O)N1CCc2ccccc21)NC(=O)C1(N)CCOCC1 [GSK-2793660, reference compound] | – | – | – | IC50 [3, 6]: 0.34 nM
8 | Cn1c(=O)oc2ccc(-c3ccc(C[C@@H](C#N)NC(=O)C4(N)CCS(=O)(=O)C4)cc3)cc21 (some centres unmarked) | > 5000 nM | > 5000 nM | – | –
9 | Cn1c(=O)oc2ccc(-c3ccc(C[C@@H](C#N)NC(=O)C4CNCCS(=O)(=O)C4)cc3)cc21 (some centres unmarked) | 4820 nM | 2760 nM | – | –
10 | Cn1c(=O)oc2ccc(-c3ccc(C[C@@H](C#N)NC(=O)CC4CCCN4)cc3)cc21 (some centres unmarked) | > 5000 nM | > 5000 nM | – | –
11 | C=C1Oc2ccc(-c3ccc(C[C@@H](C#N)NC(=O)C4CC5NCCCC5N4)cc3)cc2N1C (some centres unmarked) | > 5000 nM | > 5000 nM | – | –
12 | Cn1c(=O)oc2ccc(-c3ccc(C[C@@H](C#N)NC(=O)C4CCC(N)C4)cc3)cc21 (some centres unmarked) | > 5000 nM | > 5000 nM | – | –
13 | Cn1c(=O)oc2ccc(-c3ccc(C[C@@H](C#N)NC(=O)[C@@H]4C[C@H]5COC[C@H]5N4)cc3)cc21 [IWD-005, (2S,3αR,6αS)—N—((S)-1-cyano-2-(4-(3-methyl-2-oxo-2,3-dihydrobenzo[d]oxazol-5-yl)phenyl)ethyl)hexahydro-1H-furo[3,4-b]pyrrole-2-carboxamide] | – | – | – | IC50 ([1]; figure legends FIG. 14 and 15, read-out: IC50, in vitro inhibition of human DPP1): 69.2 nM; IC50 ([1]; human DPP1 enzyme, H-Gly-Arg-AMC substrate 400 μM, Table 14, read-out: IC50): 69.2 nM; IC50 ([2]; figure legends FIG. 12 and 13, read-out: IC50, in vitro inhibition of mouse DPP1): 45.6 nM; IC50 ([2]; mouse DPP1 enzyme, H-Gly-Arg-AMC substrate 400 μM, Table 13, read-out: IC50): 45.6 nM
14 | N#Cc1ccc(-c2ccc(C[C@@H](C#N)NC(=O)[C@@H]3C[C@@H]4COC[C@@H]4N3)c(F)c2)cc1 | 526 nM | 107 nM | – | –
15 | Cn1c(=O)oc2ccc(-c3ccc(C[C@@H](C#N)NC(=O)C4CNC4)s3)cc21 | > 5000 nM | 4930 nM | – | –
16 | Cn1c(=O)oc2ccc(-c3ccc(C[C@@H](C#N)NC(=O)[C@@H]4C[C@@H]5COC[C@@H]5N4)s3)cc21 | 589 nM | 247 nM | – | –
17 | Cn1c(=O)oc2ccc(-c3ccc(C[C@@H](C#N)NC(=O)C4=CS(=O)(=O)CCNC4)cc3)cc21 | > 5000 nM | > 5000 nM | – | –
18 | Cn1c(=O)oc2ccc(-c3ccc(C[C@@H](C#N)NC(=O)C4CCNCC4)cc3)cc21 | > 5000 nM | > 5000 nM | – | –

Further compounds by falling IC50 [1, 4], results first:

Row | IC50 [1, 4] | IC50 [2, 5] | IC50 ([3]; Table 16, read-out: Cell Assay) | Structure (SMILES) | also measured
19 | 497 nM | 226 nM | > 1000 nM | Cn1c(=O)oc2ccc(-c3ccc(C[C@@H](C#N)NC(=O)[C@H]4C[C@H]5OCC[C@H]5N4)cc3)cc21 | –
20 | 480 nM | 246 nM | 875 nM | N#Cc1ccc(-c2ccc(C[C@@H](C#N)NC(=O)[C@@H]3C[C@@H]4COC[C@@H]4N3)cc2)cc1 | –
21 | 428 nM | – | 59.9 nM | N#C[C@H](Cc1ccc(-c2ccc3c(c2)C(=O)NC3)cc1)NC(=O)[C@@H]1CNCCCO1 | –
22 | 426 nM | – | 500 nM | [2H]C([2H])([2H])n1c(=O)oc2ccc(-c3ccc(C[C@@H](C#N)NC(=O)[C@@H]4C[C@@H]5COC[C@@H]5N4)cc3)cc21 | –
23 | 416 nM | – | 418 nM | [2H]C([2H])([2H])n1c(=O)oc2ccc(-c3ccc(C[C@@H](C#N)NC(=O)C4CNC4)c(F)c3)cc21 | –
24 | 360 nM | 785 nM | 54.7 nM | Cn1c(=O)oc2ccc(-c3ccc(C[C@@H](C#N)NC(=O)C4CNC(C)(C)CO4)cc3)cc21 (some centres unmarked) | –
25 | 269 nM | 209 nM | – | N#Cc1ccc(-c2ccc(C[C@@H](C#N)NC(=O)[C@@H]3C[C@H]4COC[C@H]4N3)cc2)cc1 [drawing 1153] | –
26 | 102 nM | – | 146 nM | [2H]C([2H])([2H])n1c(=O)oc2ccc(-c3ccc(C[C@@H](C#N)NC(=O)[C@@H]4C[C@@H]5COC[C@@H]5N4)c(F)c3)cc21 | –
27 | 49.5 nM | 36.7 nM | 4.2 nM | N#Cc1ccc(-c2ccc(C[C@@H](C#N)NC(=O)[C@@H]3CNCCCO3)c(F)c2)cc1 [drawing 1197] | –
28 | 42.2 nM | – | 4.9 nM | Cn1c(=O)oc2ccc(-c3cc(F)c(C[C@@H](C#N)NC(=O)[C@@H]4CNCCCO4)c(F)c3)cc21 | –
29 | 29.6 nM | – | 3.8 nM | Cn1c(=O)oc2ccc(-c3cc(F)c(C[C@@H](C#N)NC(=O)[C@@H]4CNCCCO4)cc3F)cc21 | –
30 | 17.3 nM | 8.2 nM | 3.1 nM | Cn1c(=O)oc2ccc(-c3ccc(C[C@@H](C#N)NC(=O)[C@@H]4C[C@@H]5CCC[C@@H]5N4)cc3)cc21 | –
31 | 7.6 nM | – | 1.9 nM | Cn1c(=O)oc2ccc(-c3ccc(C[C@@H](C#N)NC(=O)[C@@H]4C[C@@H]5CCC[C@@H]5N4)c(F)c3)cc21 [drawing 1227] | –
32 | 5.9 nM | 3.4 nM | 1.7 nM | Cn1c(=O)oc2ccc(-c3ccc(C[C@@H](C#N)NC(=O)[C@@H]4C[C@@H]5CCC[C@@H]5N4)c(F)c3)cc21 [drawing 1220] | –
